Measurements published in patent US20240383904A1, “HETEROCYCLIC COMPOUNDS” (Hoffmann-La Roche Inc., priority 2021, published 2024).

Target: T1, MAGL (Homo sapiens, UniProt Q99685)
T1 sequence (Q99685 1-303): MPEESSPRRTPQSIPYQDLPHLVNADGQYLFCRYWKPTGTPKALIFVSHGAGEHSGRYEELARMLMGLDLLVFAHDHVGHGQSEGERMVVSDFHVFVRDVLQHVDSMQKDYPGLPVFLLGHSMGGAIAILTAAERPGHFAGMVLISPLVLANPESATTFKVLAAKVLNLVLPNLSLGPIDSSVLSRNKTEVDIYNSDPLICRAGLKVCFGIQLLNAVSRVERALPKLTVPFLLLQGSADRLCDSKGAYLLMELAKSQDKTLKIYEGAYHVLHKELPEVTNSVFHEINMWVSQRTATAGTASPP
Assay: 2-AG assay: MAGL inhibitory activity by hydrolysis of 2-arachidonoylglycerol to arachidonic acid, followed by mass spectrometry
Assay type: biochemical
Conditions: 15 min preincubation, 30 min reaction at RT, 8 μM 2-arachidonoylglycerol

Structure (SMILES)	IC50
O=C1CCC2(CN(C(=O)N3CC4(CCN(Cc5ccc(S(=O)(=O)C(F)(F)F)cc5)C4)C3)C2)N1 [Example 218, 2-[7-[[4-(trifluoromethylsulfonyl)phenyl]methyl]-2,7-diazaspiro[3.4]octane-2-carbonyl]-2,5-diazaspiro[3.4]octan-6-one]	0.0873 µM
O=C1CCC2(CN(C(=O)N3CC4(CC(Cn5ccc(C(F)(F)F)n5)C4)C3)C2)N1 [Example 225, 2-[6-[[3-(trifluoromethyl)pyrazol-1-yl]methyl]-2-azaspiro[3.3]heptane-2-carbonyl]-2,5-diazaspiro[3.4]octan-6-one]	0.017 µM
O=C1COCC2(CN(C(=O)N3CC4(CCC(Cc5cnc(C(F)(F)F)cn5)CC4)C3)C2)N1 [Example 226, 2-[7-[[5-(trifluoromethyl)pyrazin-2-yl]methyl]-2-azaspiro[3.5]nonane-2-carbonyl]-8-oxa-2,5-diazaspiro[3.5]nonan-6-one]	0.0459 µM
O=C1COCC2(CN(C(=O)N3CC4(CC(n5cnc(C6CC6)n5)C4)C3)C2)N1 [Example 227, 2-[6-(3-cyclopropyl-1,2,4-triazol-1-yl)-2-azaspiro[3.3]heptane-2-carbonyl]-8-oxa-2,5-diazaspiro[3.5]nonan-6-one]	1.8 µM
O=C1COCC2(CN(C(=O)N3CC4(CC(c5ccc(C(F)(F)F)cc5F)C4)C3)C2)N1 [Example 228]	0.0184 µM
O=C1COCC2(CN(C(=O)N3CC4(CN(Cc5ccc(S(=O)(=O)C(F)(F)F)cc5)C4)C3)C2)N1 [Example 229, 2-[6-[[4-(trifluoromethylsulfonyl)phenyl]methyl]-2,6-diazaspiro[3.3]heptane-2-carbonyl]-8-oxa-2,5-diazaspiro[3.5]nonan-6-one]	0.0784 µM
O=C1COCC2(CN(C(=O)N3CC4(CC(Cn5cc(C(F)(F)F)cn5)C4)C3)C2)N1 [Example 230, 2-[6-[[4-(trifluoromethyl)pyrazol-1-yl]methyl]-2-azaspiro[3.3]heptane-2-carbonyl]-8-oxa-2,5-diazaspiro[3.5]nonan-6-one]	0.059 µM
O=C1COCC2(CN(C(=O)N3CC4(CC(Cc5ccc(C(F)(F)F)nn5)C4)C3)C2)N1 [Example 231, 2-[6-[[6-(trifluoromethyl)pyrida-zin-3-yl]methyl]-2-azaspiro[3.3]heptane-2-carbonyl]-8-oxa-2,5-diazaspiro[3.5]nonan-6-one]	0.255 µM
O=C1COCC2(CN(C(=O)N3CC4(CC(Cc5cnc(C(F)(F)F)nc5)C4)C3)C2)N1 [Example 232, 2-[6-[[2-(trifluoromethyl)pyrimi-din-5-yl]methyl]-2-azaspiro[3.3]heptane-2-carbonyl]-8-oxa-2,5-diazaspiro[3.5]nonan-6-one]	0.23 µM
O=C1COCC2(CN(C(=O)N3CC4(CCN(Cc5ccc(S(=O)(=O)C(F)(F)F)cc5)C4)C3)C2)N1 [Example 233, 2-[7-[[4-(trifluoromethylsulfonyl)phenyl]methyl]-2,7-diazaspiro[3.4]octane-2-carbonyl]-8-oxa-2,5-diazaspiro[3.5]nonan-6-one]	0.265 µM
O=C1COCC2(CN(C(=O)N3CC4(CC(Cn5ccc(C(F)(F)F)n5)C4)C3)C2)N1 [Example 239, 2-[6-[[3-(trifluoromethyl)pyrazol-1-yl]methyl]-2-azaspiro[3.3]heptane-2-carbonyl]-8-oxa-2,5-diazaspiro[3.5]nonan-6-one]	0.0528 µM

The remaining molecules from weak to strong by IC50, led by results:

IC50	Structure (SMILES)
0.0165 µM	CS(=O)(=O)c1cc(CC2CC3(C2)CN(C(=O)N2CC4(COCC(=O)N4)C2)C3)cc(C(F)(F)F)c1 [Example 238, 2-[6-[[3-methylsulfonyl-5-(trifluoromethyl)phenyl]methyl]-2-azaspiro[3.3]heptane-2-carbonyl]-8-oxa-2,5-diazaspiro[3.5]nonan-6-one]
0.00849 µM	O=C1COCC2(CN(C(=O)N3CC4(CC[C@@H](Cc5ccc(S(=O)(=O)C(F)(F)F)cc5)C4)C3)C2)N1 [Example 234, 2-[(6S)-6-[[4-(trifluoromethylsulfonyl)phenyl]methyl]-2-azaspiro[3.4]octane-2-carbonyl]-8-oxa-2,5-diazaspiro[3.5]nonan-6-one]
0.00735 µM	O=C1COCC2(CN(C(=O)N3CC4(CC[C@H](Cc5ccc(S(=O)(=O)C(F)(F)F)cc5)C4)C3)C2)N1 [Example 235, 2-[(6R)-6-[[4-(trifluoromethylsulfonyl)phenyl]methyl]-2-azaspiro[3.4]octane-2-carbonyl]-8-oxa-2,5-diazaspiro[3.5]nonan-6-one]
0.00418 µM	O=C1CCC2(CN(C(=O)N3CC4(CC(Cc5cc(C(F)(F)F)n[nH]5)C4)C3)C2)N1 [Example 220, 2-[6-[[3-(trifluoromethyl)-1H-pyrazol-5-yl]methyl]-2-azaspiro[3.3]heptane-2-carbonyl]-2,5-diazaspiro[3.4]octan-6-one]
0.00315 µM	O=C1COCC2(CN(C(=O)N3CC4(CC[C@H](Cc5cccc(S(=O)(=O)C(F)(F)F)c5)C4)C3)C2)N1 [Example 237, 2-[(6R)-6-[[3-(trifluoromethylsulfonyl)phenyl]methyl]-2-azaspiro[3.4]octane-2-carbonyl]-8-oxa-2,5-diazaspiro[3.5]nonan-6-one]
0.00227 µM	O=C1CCC2(CN(C(=O)N3CC4(CC[C@@H](Cc5ccc(S(=O)(=O)C(F)(F)F)cc5)C4)C3)C2)N1 [Example 222, 2-[(6S)-6-[[4-(trifluoromethylsulfonyl)phenyl]methyl]-2-azaspiro[3.4]octane-2-carbonyl]-2,5-diazaspiro[3.4]octan-6-one]
0.00216 µM	O=C1COCC2(CN(C(=O)N3CC4(CC[C@@H](Cc5cccc(S(=O)(=O)C(F)(F)F)c5)C4)C3)C2)N1 [Example 236, 2-[(6S)-6-[[3-(trifluoromethylsulfonyl)phenyl]methyl]-2-azaspiro[3.4]octane-2-carobnyl]-8-oxa-2,5-diazaspiro[3.5]nonan-6-one]
0.00131 µM	O=C1CCC2(CN(C(=O)N3CC4(CC[C@H](Cc5ccc(S(=O)(=O)C(F)(F)F)cc5)C4)C3)C2)N1 [Example 221, 2-[(6R)-6-[[4-(trifluoromethylsulfonyl)phenyl]methyl]-2-azaspiro[3.4]octane-2-carbonyl]-2,5-diazaspiro[3.4]octan-6-one]
0.00096 µM	O=C1CCC2(CN(C(=O)N3CC4(CC[C@H](Cc5cccc(S(=O)(=O)C(F)(F)F)c5)C4)C3)C2)N1 [Example 223, 2-[(6R)-6-[[3-(trifluoromethylsulfonyl)phenyl]methyl]-2-azaspiro[3.4]octane-2-carbonyl]-2,5-diazaspiro[3.4]octan-6-one]
0.00078 µM	N#Cc1cc(CC2CC3(C2)CN(C(=O)N2CC4(CCC(=O)N4)C2)C3)cc(C(F)(F)F)c1 [Example 217, 3-[[2-(6-oxo-2,5-diazaspiro[3.4]octane-2-carbonyl)-2-azaspiro[3.3]heptan-6-yl]methyl]-5-(trifluoromethyl)benzoni-trile]
0.00043 µM	N#Cc1ccc(CC2CC3(C2)CN(C(=O)N2CC4(CCC(=O)N4)C2)C3)cc1C(F)(F)F [Example 219, 4-[[2-(6-oxo-2,5-diazaspiro[3.4]octane-2-carbonyl)-2-azaspiro[3.3]heptan-6-yl]methyl]-2-(trifluoromethyl)benzoni-trile]
0.00023 µM	O=C1CCC2(CN(C(=O)N3CC4(CC[C@@H](Cc5cccc(S(=O)(=O)C(F)(F)F)c5)C4)C3)C2)N1 [Example 224, 2-[(6S)-6-(3-triflylbenzyl)-2-azaspiro[3.4]octane-2-carbonyl]-2,5-diazaspiro[3.4]octan-6-one]
